Results taken from ChEMBL document CHEMBL1201862, “PubChem BioAssay data set” (2004).
Active and inactive are the calls of the source.

Columns and labels:
[1] = biological target: Disintegrin and metalloproteinase domain-containing protein 17 (Homo sapiens, UniProt P78536); assay: ADAM17 protease inhibitors, dose response, counter-screen for ADAM10 exosite inhibitor project, biochemical, quenched FRET substrate (AID 743253)
[2] = intracellular Trypanosoma cruzi inhibitors in host cells – cell-based, plate reader, cherry-pick samples, set 3, dose response (AID 651818); assay type: functional;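 note: compounds incubated with infected cells for about four days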
[3] = ADAM10 inhibitors, peptide cleavage, dose response, biochemical, QFRET (AID 743254);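 note: ADAM10 enzyme with the DM2 quenched FRET peptide as substrate; EDANS fluorescence gain as the protease cuts the substrate; inhibitor potency against ADAM10 proteolytic activity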
[4] = inhibitors of SNCA 5'UTR-driven translation, confirmation, luminescence, H4 neuroglioblastoma cells, dose confirmation (AID 2454); assay type: functional, cell-based;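 note: H4 neuroglioblastoma cells carrying an alpha-synuclein 5'UTR luciferase reporter; potency for inhibition of the luciferase signal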
[5] = cytotoxicity toward DRD oncogenic fibroblasts, dose response, cell-based, non-viral oncogenic, luminescence (AID 1934); assay type: functional; conditions: Homo sapiens
[6] = luciferase reporter signal reduction – luminescence, H4-C neuroglioblastoma cells, dose response (AID 2458); assay type: functional, cell-based;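 note: H4 neuroglioblastoma cells stably carrying a luciferase reporter gene fusion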
[7] = HEK293 cell cytotoxicity, dose response, cytotoxicity control, dry powder samples (AID 720567); assay type: functional, cell-based
[8] = inhibitors of firefly luciferase expression or activity, dose response, H4 neuroglioma cells, luminescence (AID 1990); assay type: functional, cell-based
BJ [9] = assay: cytotoxicity toward BJ-TERT fibroblasts, dose response, cell-based, RAS-independent, luminescence (AID 1933); assay type: functional; conditions: Homo sapiens
[10] = inhibitors of SNCA 5'UTR-driven reporter translation, confirmation, H4 neuroglioma cells, luminescence (AID 1988); assay type: functional, cell-based
BJ [11] = assay: cells; assay type: functional, cell-based; conditions: Homo sapiens
cells [12] = assay type: functional, cell-based
BJ [13] = assay: cytotoxicity toward BJ-TERT-LT-ST fibroblasts, dose response, cell-based, RAS-independent, luminescence (AID 1935); assay type: functional; conditions: Homo sapiens;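 note: BJ fibroblasts immortalized with TERT plus LT and ST oncogenes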
cells [14] = assay: cells
Major prion protein = Major prion protein (Homo sapiens, UniProt P04156); assay type: functional, cell-based
[15] = biological target: Fructose-bisphosphate aldolase (Mycobacterium tuberculosis, UniProt P9WQA3); assay: Fluorescence-based biochemical high throughput dose response assay for inhibitors of the fructose-bisphosphate aldolase (FBA) of M. tuberculosis.; assay type: functional
[16] = biological target: T1, NAD-dependent protein deacylase sirtuin-5, mitochondrial (Homo sapiens, UniProt Q9NXA8); assay: SIRT5 deacylase inhibitors, dose response, biochemical, fluorescence imaging, cherry-pick, set 6 (AID 720597)
[17] = biological target: T2, Oxysterols receptor LXR-beta (Homo sapiens, UniProt P55055); assay type: functional, cell-based;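 note: Cell-based luminescence dose-response assay of agonist activity at LXR, run as a confirmatory counterscreen to a daf-12 agonist screen; HEK293 cells with Gal4-LXR fusion and GAL4-driven luciferase reporter; agonist potency from rising luciferase signal of a Gal4-LXR reporter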
T2 sequence (P55055 whole entry): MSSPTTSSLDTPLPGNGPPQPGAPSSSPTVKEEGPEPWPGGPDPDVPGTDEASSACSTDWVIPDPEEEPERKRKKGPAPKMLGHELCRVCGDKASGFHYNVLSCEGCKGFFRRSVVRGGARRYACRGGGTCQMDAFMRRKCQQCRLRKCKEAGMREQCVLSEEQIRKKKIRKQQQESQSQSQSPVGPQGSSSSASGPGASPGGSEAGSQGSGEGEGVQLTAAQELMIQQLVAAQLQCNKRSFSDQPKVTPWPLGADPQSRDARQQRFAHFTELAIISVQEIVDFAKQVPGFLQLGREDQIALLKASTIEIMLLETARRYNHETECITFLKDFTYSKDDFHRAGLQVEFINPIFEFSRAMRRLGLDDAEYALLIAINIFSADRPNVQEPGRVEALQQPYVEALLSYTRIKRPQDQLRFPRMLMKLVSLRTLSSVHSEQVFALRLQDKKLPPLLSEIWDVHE

cells [18] = assay: cells; remark: listed apart in the source
[19] = biological target: Arf-GAP with SH3 domain, ANK repeat and PH domain-containing protein 1 (Homo sapiens, UniProt Q9ULH1); assay type: functional;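 note: biochemical fluorescence polarization dose–response screen measuring inhibition of ASAP1; ASAP1 GAP domain stimulating GTP hydrolysis by truncated human ARF1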
cells [20] = assay type: functional, cell-based; remark: listed apart in the source
cells [21] = assay type: functional, cell-based; remark: listed apart in the source
[22] = biological target: ADP-ribosylation factor GTPase-activating protein 1 (Rattus norvegicus, UniProt Q62848); assay: Fluorescence polarization-based biochemical high throughput dose response screening assay to identify inhibitors of ADP-ribosylation factor GTPase activating protein 1 (ARFGAP1).; assay type: functional
[23] = biological target: T1, NAD-dependent protein deacylase sirtuin-5, mitochondrial; assay: SIRT5 desuccinylase inhibitors, dose response, biochemical, fluorescence imaging, cherry-pick, set 5 (AID 720591);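 note: desuccinylation of succinyl peptide AMC substrate read as fluorescence after trypsin release; potency of inhibitors that lower fluorescence and may act on trypsin instead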
[24] = biological target: SWI/SNF-related matrix-associated actin-dependent regulator of chromatin subfamily A member 2 (Homo sapiens, UniProt P51531); assay: Luminescence-based cell-based high throughput dose response assay to identify activators of the function of SWI/SNF related, matrix associated, actin dependent regulator of chromatin, subfamily a, member 2 (SMARCA2, BRM).; assay type: functional
[25] = biological target: FAD-linked sulfhydryl oxidase ALR (Homo sapiens, UniProt P55789); assay: inhibitors of human ALR sulfhydryl oxidase, dose response, biochemical, H2O2 detection, luminescence, cherry-pick (AID 493248)
[26] = Counterscreen for activators of the function of SWI/SNF related, matrix associated, actin dependent regulator of chromatin, subfamily a, member 2 (SMARCA2, BRM): Luminescence-based cell-based high throughput dose response assay to identify non-selective compounds using the VP16 reporter assay.; assay type: functional
Paired box protein Pax-8 = Paired box protein Pax-8 (Homo sapiens, UniProt Q06710); assay: inhibitors of PAX8-driven TPO luciferase reporter, dose response, RMG-I cells, cherry-pick (AID 687027); assay type: functional, cell-based;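 note: luciferase reporter driven by Pax8 target thyroperoxidase promoter measured by SteadyGlo luminescence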
[27] = NIH:OVCAR-3 ovarian cancer cell cytotoxicity, dose response, PAX8 inhibitor project, plate reader, dry powder samples (AID 743044); assay type: functional, cell-based
[28] = non-specific cell cytotoxicity, dose response, cytotoxicity control for PAX8 inhibitor project, plate reader, dry powder samples (AID 743021); assay type: functional, cell-based
[29] = A2780 ovarian cancer cell cytotoxicity, dose response, cytotoxicity control, plate reader, dry powder samples (AID 743046); assay type: functional, cell-based

In the case of `C[C@@H]1CCCCO[C@H](CN(C)S(=O)(=O)c2ccc(F)cc2)[C@@H](C)CN([C@H](C)CO)C(=O)c2cc(NC(=O)Nc3ccc(C(F)(F)F)cc3)ccc2O1`, the IC50 [1] is reported as > 69.5 µM (inactive), the AC50 [2] is reported as 3.61 µM (active) and the IC50 [3] is reported as > 69.5 µM (inactive).
For `COc1ccc(NC(=O)C(=O)c2cn(CC(=O)N3CCCC3)c3ccccc23)cc1`, the EC50 [4] was 0.681 µM (active), the EC50 [5] was 2.25 µM (active) and the EC50 [6] was 0.323 µM (active). For the same molecule, the AC50 [7] was 0.143 µM (active), the EC50 [8] was 0.269 µM (inconclusive) and the EC50 (BJ [9]) was 2.77 µM (active). For the same molecule, the EC50 [10] was < 0.1 µM (active), the EC50 (BJ [11]) was 1.54 µM (active) and the EC50 (cells [12]) was 0.515 µM (active). The EC50 (BJ [13]) was 2.34 µM (inconclusive).
With `COC(=O)c1sc(N=C(S)NNC(=O)c2c(Br)c(C)nn2C)c(C(=O)OC)c1C` the IC50 (cells [14]) was > 138 µM (inactive) and the IC50 (Major prion protein) was 1.16 µM (active).
In the case of `CCOC(=O)c1cnc2ccc(C)cn2c1=O`, the IC50 [15] is reported as 1.23 µM (active).
With `COc1ccc(NC(=O)N(C)C[C@H]2Oc3ccc(NS(=O)(=O)c4ccc(F)cc4)cc3C(=O)N([C@@H](C)CO)C[C@H]2C)cc1` the AC50 [16] was > 30 µM (inactive).
With `O=C1C(=C2CCc3ccccc32)Cc2ccccc21` the EC50 [17] was > 67.4 µM (inactive) and the EC50 (cells [18]) was > 67.4 µM (inactive).
For `CNc1ncc(C(=O)c2ccc(Cl)cc2)s1`, the IC50 (cells [14]) was > 138 µM (inactive) and the IC50 (Major prion protein) was 6.92 µM (active).
For `Cc1ccc2nc(SCC(=O)N3CCCCC3)nc(=O)n2c1`, the IC50 [19] was 45.9 µM (inactive), the EC50 (cells [20]) was > 350 µM (not active) and the EC50 (cells [21]) was > 350 µM (not active). The IC50 [22] was 32 µM (inactive).
In the case of `O=S1(=O)N[C@@H](Cc2ccccc2)COc2cccc(N3CCCC3)c21`, the AC50 [23] is reported as > 30 µM (inactive).
For `N=C(NC(=S)Nc1ccc2c(c1)OCO2)c1ccccc1`, the EC50 [17] was > 67.5 µM (inactive) and the EC50 (cells [18]) was > 67.5 µM (inactive).
In the case of `Cc1ccc(O)c(CNc2nc3ccccc3n2C)c1`, the EC50 [24] is reported as > 91.2 µM (inactive), the AC50 [25] is reported as 9.83 µM (active) and the EC50 [26] is reported as > 91.2 µM (inactive).
With `CO[C@@H]1CN(C)C(=O)c2cc(NC(=O)c3ccc(-c4ccccc4)cc3)ccc2OC[C@H](C)NC[C@H]1C` the AC50 (Paired box protein Pax-8) was 25.3 µM (active), the AC50 [27] was 42.2 µM (active) and the AC50 [28] was 40.4 µM (active). For the same molecule, the AC50 [29] was 37.2 µM (active).
